The compounds below were run against MMP-13 (catalytic domain of collagenase 3) (Homo sapiens, UniProt P45452) (assay: Thiopeptolide substrate hydrolysis assay, MMP-13). Details: catalytic domain of collagenase 3; Table 1; read-out: MMP-13 IC50.
Assay type: biochemical
Source text: The assays used to evaluate the biological activity of the invention compounds are well known and routinely used by those skilled in the study of MMP inhibitors and their use to treat clinical conditions.
The assays measure the amount by which a test compound reduces the hydrolysis of a thiopeptolide substrate catalyzed by a matrix metalloproteinase enzyme. Such assays are described in detail by Ye et al., in Biochemistry, 1992; 31(45):11231–11235, which is incorporated herein by reference.
Thiopeptolide substrates show virtually no decomposition or hydrolysis at or below neutral pH in the absence of a matrix metalloproteinase enzyme. A typical thiopeptolide substrate commonly utilized for assays is Ac-Pro-Leu-Gly-thioester-Leu-Leu-Gly-OEt. A 100-μL assay mixture will contain 50 mM of N-2-hydroxyethylpiperazine-N′-2-ethanesulfonic acid buffer (“HEPES”) at pH 7.0, 10 mM CaCl2, 100 μM thiopeptolide substrate, and 1 mM 5,5′-dithio-bis-(2-nitro-benzoic acid) (DTNB). The thiopeptolide substrate concentration may be varied from, for example, 10 to 800 μM to obtain Km and Kcat values. The change in absorbance at 405 nm is monitored on a Thermo Max microplate reader (Molecular Devices, Menlo Park, Calif.) at room temperature (22° C.). The calculation of the amount of hydrolysis of the thiopeptolide substrate is based on E412=13600 M^−1 cm^−1 for the DTNB-derived product 3-carboxy-4-nitrothiophenoxide. Assays are carried out with and without matrix metalloproteinase inhibitor compounds, and the amount of hydrolysis is compared for a determination of inhibitory activity of the test compounds.
In the tables, MMP-1 refers to full-length interstitial collagenase; MMP-3 refers to the catalytic domain of stromelysin-1; MMP-13 refers to the catalytic domain of collagenase 3. Test compounds were evaluated at various concentrations to determine their respective IC50 values.

IC50	Compound
0.035 µM	COc1cccc(CNC(=O)c2ccnc(C(=O)NCc3cccc(OC)c3)c2)c1 [Example 1, Pyridine-2,4-dicarboxylic acid bis-(3-methoxy-benzylaride)]
0.23 µM	COc1ncc(C(=O)NCc2ccc3c(c2)OCO3)cc1C(=O)NCc1ccc2c(c1)OCO2 [Example 4, 2-Methoxy-pyridine-3,5-dicarboxylic acid bis-[(1,3-benzodioxol-5-ylmethyl)-amide]]
0.014 µM	O=C(NCc1ccc2c(c1)OCO2)c1ccnc(C(=O)NCc2ccc3c(c2)OCO3)c1 [Example 8, Pyridine-2,4-dicarboxylic acid bis-[(1,3-benzodioxol-5-ylmethyl)-amide]]

Same assay, conditions: catalytic domain, human; combinatorial compounds of Example 14; Table 2; read-out: MMP-13 IC50 CD/Human

IC50	Compound
0.038 µM	COc1cccc(CNC(=O)c2ccnc(C(=O)NCc3cccc(OC)c3)c2)c1 [Example 14.1, Pyridine-2,4-dicarboxylic acid bis-(3-methoxy-benzylamide)]
0.033 µM	O=C(NCc1ccc2c(c1)OCO2)c1ccnc(C(=O)NCc2ccc3c(c2)OCO3)c1 [Example 14.2, Pyridine-2,4-dicarboxylic acid bis-[(1,3-benzodioxol-5-ylmethyl)-amide]]
0.3 µM	O=C(NCc1ccc(Cl)cc1)c1ccnc(C(=O)NCc2ccc(Cl)cc2)c1 [Example 14.4, Pyridine-2,4-dicarboxylic acid bis-(4-chloro-benzylamide)]
30 µM	O=C(NCc1cccc2ccccc12)c1ccnc(C(=O)NCc2cccc3ccccc23)c1 [Example 14.6, Pyridine-2,4-dicarboxylic acid bis-[(naphthalen-1-ylmethyl)-amide]]
0.13 µM	COc1ccc(CNC(=O)c2ccnc(C(=O)NCc3ccc(OC)cc3)c2)cc1 [Example 14.8, Pyridine-2,4-dicarboxylic acid bis-(4-methoxy-benzylamide)]
0.18 µM	O=C(NCc1cccc(F)c1)c1ccnc(C(=O)NCc2cccc(F)c2)c1 [Example 14.9, Pyridine-2,4-dicarboxylic acid bis-(3-fluoro-benzylamide)]
30 µM	O=C(NCCc1ccccc1Oc1ccccc1)c1ccnc(C(=O)NCCc2ccccc2Oc2ccccc2)c1 [Example 14.12, Pyridine-2,4-dicarboxylic acid bis-{[2-(2-phenoxy-phenyl)-ethyl]-amide}]
30 µM	CCc1ccc(CCNC(=O)c2ccnc(C(=O)NCCc3ccc(CC)cc3)c2)cc1 [Example 14.19, Pyridine-2,4-dicarboxylic acid bis-{[2-(4-ethyl-phenyl)-ethyl]-amide}]
30 µM	O=C(NC(Cc1ccccc1)c1ccccc1)c1ccnc(C(=O)NC(Cc2ccccc2)c2ccccc2)c1 (centres unmarked) [Example 14.21, Pyridine-2,4-dicarboxylic acid bis-[(1,2-diphenyl-ethyl)-amide]]
30 µM	O=C(NCc1ccc(Cl)cc1Cl)c1ccnc(C(=O)NCc2ccc(Cl)cc2Cl)c1 [Example 14.22, Pyridine-2,4-dicarboxylic acid bis-(2,4-dichloro-benzylamide)]
30 µM	O=C(NCc1ccccc1-c1ccccc1)c1ccnc(C(=O)NCc2ccccc2-c2ccccc2)c1 [Example 14.23, Pyridine-2,4-dicarboxylic acid bis-[(biphenyl-2-ylmethyl)-amide]]
0.074 µM	O=C(NCc1cccc(Cl)c1)c1ccnc(C(=O)NCc2cccc(Cl)c2)c1 [Example 14.25, Pyridine-2,4-dicarboxylic acid bis-(3-chloro-benzylamide)]
2 µM	O=C(NCc1ccncc1)c1ccnc(C(=O)NCc2ccncc2)c1 [Example 14.32, Pyridine-2,4-dicarboxylic acid bis-[(pyridin-4-ylmethyl)-amide]]
0.31 µM	O=C(NCc1cccc(C(F)(F)F)c1)c1ccnc(C(=O)NCc2cccc(C(F)(F)F)c2)c1 [Example 14.35, Pyridine-2,4-dicarboxylic acid bis-(3-trifluoromethyl-benzylamide)]
0.26 µM	O=C(NCc1cccc(OC(F)F)c1)c1ccnc(C(=O)NCc2cccc(OC(F)F)c2)c1 [Example 14.37, Pyridine-2,4-dicarboxylic acid bis-(3-difluoromethoxy-benzylamide)]
0.28 µM	O=C(NCc1ccc(F)c(C(F)(F)F)c1)c1ccnc(C(=O)NCc2ccc(F)c(C(F)(F)F)c2)c1 [Example 14.39, Pyridine-2,4-dicarboxylic acid bis-(4-fluoro-3-trifluoromethyl-benzylamide)]
0.04 µM	O=C(NCc1ccc(F)c(Cl)c1)c1ccnc(C(=O)NCc2ccc(F)c(Cl)c2)c1 [Example 14.42, Pyridine-2,4-dicarboxylic acid bis-(3-chloro-4-fluoro-benzylamide)]
70 µM	Nc1ccc(CNC(=O)c2ccnc(C(=O)NCc3ccc(N)cc3)c2)cc1 [Example 14.44, Pyridine-2,4-dicarboxylic acid bis-(4-amino-benzylamide)]
30 µM	COc1ccc(C(NC(=O)c2ccnc(C(=O)NC(c3ccc(OC)cc3)c3ccc(OC)cc3)c2)c2ccc(OC)cc2)cc1 [Example 14.46, Pyridine-2,4-dicarboxylic acid bis-{[bis-(4-methoxy-phenyl)-methyl]-amide}]
30 µM	O=C(NCCC(c1ccccc1)c1ccccc1)c1ccnc(C(=O)NCCC(c2ccccc2)c2ccccc2)c1 [Example 14.47, Pyridine-2,4-dicarboxylic acid bis-[(3,3-diphenyl-propyl)-amide]]
84 µM	O=C(NCc1ccccc1F)c1ccnc(C(=O)NCc2ccccc2F)c1 [Example 14.50, Pyridine-2,4-dicarboxylic acid bis-(2-fluoro-benzylamide)]
1.5 µM	Cc1ccc(CNC(=O)c2ccnc(C(=O)NCc3ccc(C)cc3)c2)cc1 [Example 14.54, Pyridine-2,4-dicarboxylic acid bis-(4-methyl-benzylamide)]
34 µM	O=C(NCc1cccnc1)c1ccnc(C(=O)NCc2cccnc2)c1 [Example 14.57, Pyridine-2,4-dicarboxylic acid bis-[(pyridin-3-ylmethyl)-amide]]
13 µM	O=C(NCc1cccs1)c1ccnc(C(=O)NCc2cccs2)c1 [Example 14.60, Pyridine-2,4-dicarboxylic acid bis-[(thiophen-2-ylmethyl)-amide]]
30 µM	O=C(NCc1ccc(C(F)(F)F)cc1)c1ccnc(C(=O)NCc2ccc(C(F)(F)F)cc2)c1 [Example 14.61, Pyridine-2,4-dicarboxylic acid bis-(4-trifluoromethyl-benzylamide)]
88 µM	Cc1ccc(CNC(=O)c2ccnc(C(=O)NCc3ccc(C)o3)c2)o1 [Example 14.62, Pyridine-2,4-dicarboxylic acid bis-[(5-methyl-furan-2-ylmethyl)-amide]]
30 µM	CC(NC(=O)c1ccnc(C(=O)NC(C)c2cccc3ccccc23)c1)c1cccc2ccccc12 (centres unmarked) [Example 14.65, Pyridine-2,4-dicarboxylic acid bis-[(1-naphthalen-1-yl-ethyl)-amide]]
30 µM	O=C(NCCc1ccc(O)cc1)c1ccnc(C(=O)NCCc2ccc(O)cc2)c1 [Example 14.66, Pyridine-2,4-dicarboxylic acid bis-{[2-(4-hydroxy-phenyl)-ethyl]-amide}]
4 µM	O=C(NCc1cccc(OC(F)(F)F)c1)c1ccnc(C(=O)NCc2cccc(OC(F)(F)F)c2)c1 [Example 14.67, Pyridine-2,4-dicarboxylic acid bis-(3-trifluoromethoxy-benzylamide)]

Reference: patent publication US7015237B2, “Pyridine matrix metalloproteinase inhibitors” (Warner-Lambert Company, priority 2001, dated 2006)
